# Where two headings read alike, the source gives them in different places.
# Columns and labels:
# Format in all cases: cell-based
# [1] = tested on: Aeromonas hydrophilia (aehy); test: Example 3: colony color on chromogenic TSA II with 5% sheep blood (chromogen in medium); conditions: for Colony Color: CO2, 21 h
# [2] = tested on: Branhamella catarrhalis (brca); test: as above; conditions: for Colony Color: CO2, 21 h
# [3] = tested on: Candida albicans (caal); test: as above; conditions: for Colony Color: caal 10231, 24 h
# [4] = tested on: Citrobacter freundii (cifr); test: as above; conditions: for Colony Color: CO2, 21 h
# [5] = tested on: Entercoccus faecalis (enfa); test: as above
# [6] = tested on: E. faecium (enfu); test: as above; conditions: for Colony Color: enfu 49032, 21 h
# [7] = tested on: E. coli (non-O157) (esco)
# [8] = tested on: Klebsiella pneumoniae (klpn); test: Example 3: colony color on chromogenic TSA II with 5% sheep blood (chromogen in medium)
# [9] = tested on: Pseudomonas aeruginosa (psae); test: as above; conditions: for Colony Color: CO2, 21 h
# [10] = tested on: Salmonella spp. (sasp); conditions: for Colony Color: CO2, 21 h
# [11] = tested on: Serratia marcescens (sema); test: Example 3: colony color on chromogenic TSA II with 5% sheep blood (chromogen in medium); conditions: for Colony Color: sema 13880, CO2, 21 h
# [12] = tested on: Streptococcus agalactiae (stag); test: as above
# [13] = tested on: Staphylococcus aureus (stau); test: as above
# [14] = tested on: Staphylococcus Coag Neg (step); test: as above; conditions: for Colony Color: 21 h
# [15] = tested on: S. milleri (stmi); test: as above; conditions: for Colony Color: stmi 6249, 21 h
# [16] = tested on: S. pneumoniae (stpn); test: as above
# [17] = tested on: S pyogenes (stpy); test: as above; conditions: for Colony Color: 21 h
# [18] = tested on: 55 strains; test: Example 3: color, hemolytic activity and growth over all 55 strains
# Excerpt: Steers, E. et al., Antibiot.
# [19] = tested on: cakr 34135; test: Example 3: colony color on chromogenic TSA II with 5% sheep blood (chromogen in medium); conditions: CO2, 21 h
# [20] = tested on: milu 9341; test: as above; conditions: CO2, 21 h
# [21] = chromogenic TSA II with 5% Sheep Blood, 0.1 g/l, 3 strains tested
# [22] = chromogenic TSA II with 5% Sheep Blood, 0.1 g/l, 2 strains tested
# [23] = chromogenic TSA II with 5% Sheep Blood, 0.1 g/l, 6 strains tested
# [24] = chromogenic TSA II with 5% Sheep Blood, 0.1 g/l, 1 strain tested
# [25] = chromogenic TSA II with 5% Sheep Blood, 0.1 g/l, 5 strains tested
compound,measurement,setting,value
Magenta-caprylate [M-Cap],Colony Color,[1]; aehy 7965,0
same,Colony Color,[1]; aehy 7966,0
same,Colony Color,[1]; aehy 49847,0
same,Colony Color (Summary),[1]; [21],0
same,Colony Color,[2]; brca 25238,0
same,Colony Color,[2]; brca 25240,0
same,Colony Color (Summary),[2]; [22],0
same,Colony Color,[3]; CO2,0
same,Colony Color,[3]; air,0
same,Colony Color (Summary),[3]; [22],0
same,Colony Color (Summary),[4]; [22],0
same,Colony Color,[4]; cifr 8454,0
same,Colony Color,[4]; cifr 33128,0
same,Colony Color (Summary),[5]; [23],0
same,Colony Color,"[5]; enfa 597, CO2, 21 h",0
same,Colony Color,"[5]; enfa 597, air, 21 h",0
same,Colony Color,"[5]; enfa 10741, CO2, 21 h",0
same,Colony Color,"[5]; enfa 10741, air, 21 h",0
same,Colony Color,"[5]; enfa 12953, CO2, 21 h",0
same,Colony Color,"[5]; enfa 12953, air, 21 h",0
same,Colony Color,"[5]; enfa 14506, CO2, 21 h",0
same,Colony Color,"[5]; enfa 14506, air, 21 h",0
same,Colony Color,"[5]; enfa 29212, CO2, 21 h",0
same,Colony Color,"[5]; enfa 29212, CO2, 24 h",0
same,Colony Color,"[5]; enfa 29212, air, 21 h",0
same,Colony Color,"[5]; enfa 29212, air, 24 h",0
same,Colony Color (Summary),[6]; [24],0
same,Colony Color,[6]; CO2,0
same,Colony Color,[6]; air,0
same,Colony Color (Summary),[7]; [21],0
same,Colony Color,"[7]; esco 11775, CO2, 21 h",0
same,Colony Color,"[7]; esco 25922, CO2, 24 h",0
same,Colony Color,"[7]; esco 25922, air, 24 h",0
same,Colony Color,"[7]; esco 33605, CO2, 21 h",0
same,Colony Color (Summary),[8]; [21],0
same,Colony Color,"[8]; klpn 13883, CO2, 21 h",0
same,Colony Color,"[8]; klpn 33495, CO2, 24 h",0
same,Colony Color,"[8]; klpn 33495, air, 24 h",0
same,Colony Color,"[8]; klpn 33606, CO2, 21 h",0
same,Colony Color (Summary),[9]; [21],0
same,Colony Color,[9]; psae 9027,0
same,Colony Color,[9]; psae 15442,0
same,Colony Color,[9]; psae 33607,0
same,Colony Color (Summary),[10]; [22],0
same,Colony Color,[10]; saty 19430,0
same,Colony Color,[10]; satym 14028,0
same,Colony Color (Summary),[11]; [24],0
same,Colony Color,[11],0
same,Colony Color (Summary),[12]; [21],0
same,Colony Color,"[12]; stag 4768, CO2, 21 h",0
same,Colony Color,"[12]; stag 4768, air, 21 h",0
same,Colony Color,"[12]; stag 12386, CO2, 21 h",0
same,Colony Color,"[12]; stag 12386, CO2, 24 h",0
same,Colony Color,"[12]; stag 12386, air, 24 h",0
same,Colony Color (Summary),[13]; [25],0
same,Colony Color,"[13]; stau 1006, CO2, 21 h",0
same,Colony Color,"[13]; stau 1007, CO2, 21 h",0
same,Colony Color,"[13]; stau 1008, CO2, 21 h",0
same,Colony Color,"[13]; stau 1009, CO2, 21 h",0
same,Colony Color,"[13]; stau 25923, CO2, 24 h",0
same,Colony Color,"[13]; stau 25923, air, 24 h",0
same,Colony Color (Summary),[14]; [25],0
same,Colony Color,"[14]; step 12228, CO2",0
same,Colony Color,"[14]; step 12228, air",0
same,Colony Color,"[14]; step cdc1, CO2",0
same,Colony Color,"[14]; step cdc1, air",0
same,Colony Color,"[14]; step cdc2, CO2",0
same,Colony Color,"[14]; step cdc2, air",0
same,Colony Color,"[14]; step cdc3, CO2",0
same,Colony Color,"[14]; step cdc3, air",0
same,Colony Color,"[14]; step cdc4, CO2",0
same,Colony Color,"[14]; step cdc4, air",0
same,Colony Color (Summary),[15]; [22],0
same,Colony Color,[15]; CO2,0
same,Colony Color,[15]; air,0
same,Colony Color (Summary),[16]; [23],0
same,Colony Color,"[16]; stpn 1259, CO2, 21 h",0
same,Colony Color,"[16]; stpn 1260, CO2, 21 h",0
same,Colony Color,"[16]; stpn 1331, CO2, 21 h",0
same,Colony Color,"[16]; stpn 1628, CO2, 21 h",0
same,Colony Color,"[16]; stpn 6303, CO2, 24 h",0
same,Colony Color,"[16]; stpn 6303, air, 24 h",0
same,Colony Color,"[16]; stpn 6305, CO2, 24 h",0
same,Colony Color,"[16]; stpn 6305, air, 24 h",0
same,Colony Color (Summary),[17]; [23],0
same,Colony Color,"[17]; stpy 1027, CO2",0
same,Colony Color,"[17]; stpy 1028, CO2",0
same,Colony Color,"[17]; stpy 1029, CO2",0
same,Colony Color,"[17]; stpy 1030, CO2",0
same,Colony Color,"[17]; stpy 19615, CO2",0
same,Colony Color,"[17]; stpy 19615, air",0
same,Colony Color,"[17]; stpy 49117, CO2",0
same,Colony Color,"[17]; stpy 49117, air",0
same,Colony Color,"[17]; stpy 51339, CO2",0
same,Colony Color,"[17]; stpy 51339, air",0
same,Activity (color) for most organisms,[18]; chromogenic TSA II,inactive
same,Colony Color,[19],0
same,Colony Color,[20],0
"CC(C)S[C@@H]1O[C@H](CO)[C@H](O)[C@H](O)[C@H]1O [IPTG, Isopropyl-β-D-thiogalactopyranoside]",Effect on reactivity with X-gal,[18]; some strains,reduce the reactivity
"NC1CCCCC1.O=C(O)[C@H]1O[C@@H](Oc2c[nH]c3cc(Cl)ccc23)[C@H](O)[C@@H](O)[C@@H]1O [Sal-Glucuro, 6-Cl-3-indolyl-β-D-glucuronide (CHA salt)]",Colony Color,[1]; aehy 7965,0
same,Colony Color,[1]; aehy 7966,0
same,Colony Color,[1]; aehy 49847,0
same,Colony Color,[2]; brca 25238,0
same,Colony Color,[2]; brca 25240,0
same,Colony Color,[3]; CO2,0
same,Colony Color,[3]; air,0
same,Colony Color,[4]; cifr 8454,0
same,Colony Color,[4]; cifr 33128,0
same,Colony Color,"[5]; enfa 597, CO2, 21 h",0
same,Colony Color,"[5]; enfa 597, air, 21 h",0
same,Colony Color,"[5]; enfa 10741, CO2, 21 h",0
same,Colony Color,"[5]; enfa 10741, air, 21 h",0
same,Colony Color,"[5]; enfa 12953, CO2, 21 h",0
same,Colony Color,"[5]; enfa 12953, air, 21 h",0
same,Colony Color,"[5]; enfa 14506, CO2, 21 h",0
same,Colony Color,"[5]; enfa 14506, air, 21 h",0
same,Colony Color,"[5]; enfa 29212, CO2, 21 h",0
same,Colony Color,"[5]; enfa 29212, CO2, 24 h",0
same,Colony Color,"[5]; enfa 29212, air, 21 h",0
same,Colony Color,"[5]; enfa 29212, air, 24 h",0
same,Colony Color,[6]; CO2,0
same,Colony Color,[6]; air,0
same,Colony Color,"[7]; esco 11775, CO2, 21 h",0
same,Colony Color,"[7]; esco 25922, CO2, 24 h",0
same,Colony Color,"[7]; esco 25922, air, 24 h",0
same,Colony Color,"[7]; esco 33605, CO2, 21 h",0
same,Colony Color,"[8]; klpn 13883, CO2, 21 h",0
same,Colony Color,"[8]; klpn 33495, CO2, 24 h",0
same,Colony Color,"[8]; klpn 33495, air, 24 h",0
same,Colony Color,"[8]; klpn 33606, CO2, 21 h",0
same,Colony Color,[9]; psae 9027,0
same,Colony Color,[9]; psae 15442,0
same,Colony Color,[9]; psae 33607,0
same,Colony Color,[10]; saty 19430,0
same,Colony Color,[10]; satym 14028,0
same,Colony Color,[11],0
same,Colony Color,"[12]; stag 4768, CO2, 21 h",0
same,Colony Color,"[12]; stag 4768, air, 21 h",0
same,Colony Color,"[12]; stag 12386, CO2, 21 h",0
same,Colony Color,"[12]; stag 12386, CO2, 24 h",gp
same,Colony Color,"[12]; stag 12386, air, 24 h",gp
same,Colony Color,"[13]; stau 1006, CO2, 21 h",0
same,Colony Color,"[13]; stau 1007, CO2, 21 h",0
same,Colony Color,"[13]; stau 1008, CO2, 21 h",0
same,Colony Color,"[13]; stau 1009, CO2, 21 h",0
same,Colony Color,"[13]; stau 25923, CO2, 24 h",0
same,Colony Color,"[13]; stau 25923, air, 24 h",0
same,Colony Color,"[14]; step 12228, CO2",0
same,Colony Color,"[14]; step 12228, air",0
same,Colony Color,"[14]; step cdc1, CO2",0
same,Colony Color,"[14]; step cdc1, air",0
same,Colony Color,"[14]; step cdc2, CO2",0
same,Colony Color,"[14]; step cdc2, air",0
same,Colony Color,"[14]; step cdc3, CO2",0
same,Colony Color,"[14]; step cdc3, air",0
same,Colony Color,"[14]; step cdc4, CO2",0
same,Colony Color,"[14]; step cdc4, air",0
same,Colony Color,[15]; CO2,0
same,Colony Color,[15]; air,0
same,Colony Color,"[16]; stpn 1259, CO2, 21 h",0
same,Colony Color,"[16]; stpn 1260, CO2, 21 h",0
same,Colony Color,"[16]; stpn 1628, CO2, 21 h",0
same,Colony Color,"[16]; stpn 6303, CO2, 24 h",0
same,Colony Color,"[16]; stpn 6303, air, 24 h",0
same,Colony Color,"[16]; stpn 6305, CO2, 24 h",0
same,Colony Color,"[16]; stpn 6305, air, 24 h",0
same,Colony Color,"[17]; stpy 1027, CO2",0
same,Colony Color,"[17]; stpy 1028, CO2",0
same,Colony Color,"[17]; stpy 1029, CO2",0
same,Colony Color,"[17]; stpy 1030, CO2",0
same,Colony Color,"[17]; stpy 19615, CO2",0
same,Colony Color,"[17]; stpy 19615, air",0
same,Colony Color,"[17]; stpy 49117, CO2",0
same,Colony Color,"[17]; stpy 49117, air",0
same,Colony Color,"[17]; stpy 51339, CO2",0
same,Colony Color,"[17]; stpy 51339, air",0
same,Colony Color,[19],0
same,Colony Color,[20],0

# Source: US20020086278A1, “CHROMOGENIC MEDIA CONTAINING BLOOD OR HEMIN” (priority 1999, published 2002)
